The results in this text go back to a melting point compilation (Tetko et al.; mined from patent text by program, amines drawn as free bases though some values may be those of a salt).

Molecules are shown by their SMILES.

As to `COc1ccc(C(=O)C2CCCCC2)c(Cl)c1Cl`, the melting point (usually the temperature, or range, at which the solid turns liquid) fell in the range of 97 to 98 °C.
Molecule `COCCc1nc2c(N)nc3ccccc3c2n1CCCNC(=O)N1CCOCC1` returned a melting point of 194 to 196 °C.
As for `CCCCCCCCCCC(NC(=O)NC12CC3CC(CC(C3)C1)C2)C(=O)OC` (stereo not given), the melting point worked out at 75 °C.
As for `CC(=O)Nc1ncc(Cc2ccc(Cl)cc2)c(N)n1`, the melting point amounted to 215 °C.
The molecule `CCn1c(-c2ccc(-n3ccnc3)cc2)cnc1[C@H](Cc1ccccn1)N(C=O)c1cc2cc(F)ccc2o1` came in with a melting point of 80 to 84 °C.
`Fc1cccc(/C=C/C2=CCN(Cc3c[nH]c4ncccc34)CC2)c1` yielded a melting point of 199 to 201 °C.
Turning to `Cc1cc(Oc2cccc(C(F)(F)F)c2)nn1C(=O)NCC1CCCO1` (stereo not given), the melting point is 101 to 102 °C.
`Cc1cc(=O)n(-c2cc(OC(C)C)c(C)cc2F)c(=O)o1` gave a melting point of 122 to 124 °C.
`CC(C)(C)c1ccc(-n2cc(C(=O)O)c(=O)c3ccc(-c4ccncc4)cc32)cc1` yielded a melting point of 251 to 252 °C.
Turning to `O=C1CN2C(=O)C(c3ccccc3)(c3ccccc3)c3cccc(c32)N1`, the melting point fell in the range of 235 to 255 °C.
Under `Cn1c(C(F)(F)F)nn(-c2cc(O)c(C#N)cc2F)c1=O` stands 208 °C; under `Cc1cc(NC(=O)NC(=O)c2ccccc2Cl)cc(C)c1Oc1ccc(Cl)c2c1CCCC2`, 224 to 226 °C.
Under `Cc1c(-c2ccccc2)n(-c2ccc(F)cc2)c(-c2ccccc2)cc1=O` stands 256 to 259 °C; under `Cn1c(=O)cc(CCN2CCC(c3c[nH]c4ccccc34)CC2)c2ccccc21`, 79 to 81 °C; under `COc1ccc(C2=C(c3ccc(S(N)(=O)=O)cc3)CCC2)cc1Cl`, 179 to 180 °C.
Take `O=C(O)c1ccc(-c2ccc(NC(=O)C(F)(F)F)cc2)[nH]c1=O`: the melting point is > 270 °C.
`CN(C)S(=O)(=O)c1cccc2cccc(O)c12`: the melting point was 95 °C.
In the case of `COc1cc2c(cc1Br)[C@@H](O)[C@H](Br)C(C)(C)O2` (relative stereo) it was 58 to 59 °C; in that of `O=C(CCl)Nc1ccc2c(c1NC(=O)c1ccc(C(F)(F)F)cc1)C(=O)c1ccccc1C2=O`, 203 to 204 °C; in that of `COc1ccc(-c2nc(C(C)=O)c[nH]2)cc1`, 248 to 250 °C.
`O=C1CN(c2ccccc2)C(=O)C1c1ccccc1` (stereo not given) had a melting point of 285 to 287 °C.
`CCn1c(=O)c2c(nc(C=Cc3cccc(C(=O)O)c3)n2C)n(CC)c1=O`: the melting point lay within 260 to 262 °C.
`[N-]=[N+]=NCCc1c[nH]c(=O)[nH]c1=O` displayed a melting point of 230 to 235 °C.
In the case of `CCn1cc2c3c(cccc31)CN(C(=O)OCc1ccccc1)C2` it was 112 to 114 °C; in that of `Cc1nnc2n1-c1sc3c(c1C(c1ccccc1Cl)=NC2)CCN(C(=S)NCc1ccccc1C(F)(F)F)C3`, 178 to 184 °C.
`CCn1ccc(=O)c2cnc(-c3ccc(O)cc3)nc21` gave a melting point of 320 to 324 °C.
In turn, `CCOC(=O)c1nc(-c2ccc(F)cc2)c(-c2ccc(=O)n(C(C)C)n2)s1` registered a melting point of 193 to 194 °C.
`N#Cc1c(C(=O)O)nn(-c2ccc(Cl)cc2Cl)c1-c1ccc(Cl)cc1` gave a melting point of 132 to 137 °C.
The molecule `COc1cccc(CC(CO)NCCC(c2ccccc2)c2ccccc2)c1` (stereo not given) registered a melting point of 89 to 91 °C.
Under `COc1cc(OC)nc(C(C)c2ccccc2N)n1` (stereo not given) stands 136 to 139 °C; under `COc1ccc(OC2CCN(C)C2)c(C(N)=O)c1` (stereo not given), 85 to 87 °C.
For the molecule `O=c1c2sc3ccccc3c2oc2cc(O)cc(O)c12`, the melting point is > 300 °C.
`COC(=O)c1nc(C2CC2)nc(SC)c1Cl` had a melting point of 74 to 75 °C.
Regarding `CCCCCC(=O)c1c(CBr)n(C(=O)OC)c(=O)n1C(=O)OC`, the melting point is 71 to 73 °C.
Under `COc1ccc2nccc(NC(=O)N3CCN(CC(=O)c4cnc5ccccc5n4)CC3)c2n1` stands 167 to 169 °C.
Consider `CCN(CC)C(=O)C(=NNc1ccccc1)C(C)=O`, for which the melting point was 63 to 65 °C.
`CNC(=O)c1cc2[nH]cnc2c(Cl)c1NC(=O)c1cc(C(F)(F)F)nn1-c1ncccc1Cl` had a melting point of 190 to 192 °C.
Under `CNC(=S)C1(c2cccnn2)CCCS1` (stereo not given) stands 199 °C; under `CN1CCN(C(=O)c2cnc(S)n2Cc2cc(F)cc(F)c2)CC1`, 243 to 244 °C; under `CCOC(=O)c1cc2c(=O)n(C(C)C)c3ccccc3n2c1`, 169 to 170 °C.
In the case of `Cc1c(C)c(O)c([Si](C)(C)C)c(C#C[Si](C)(C)C)c1O` it was 76 to 77 °C; in that of `Cc1cc(OC(F)F)c([N+](=O)[O-])cc1S(=O)(=O)N(C)C`, 125 to 126 °C.
`CC(COc1ccc(C(N)=O)c(O)c1)NCC(O)COc1cccc2c1CCC(=O)N2` (stereo not given) came in with a melting point of 239 to 245 °C.
Under `CCCCc1c(OCCN2CCOCC2)c2c(OCCN3CCOCC3)cc(OCCN3CCOCC3)cc2oc1=O` stands 131 °C.
The molecule `Cc1ccn(-c2nc(Cl)c([N+](=O)[O-])s2)n1` gave a melting point of 153 °C.
In turn, `CC(=Cc1ccccc1)c1ccc2c(c1)S(=O)(=O)CCC2(C)C` had a melting point of 148 to 150 °C.
The molecule `CCOC(=O)c1cccnc1Oc1cncc(Cl)c1` had a melting point of 65 to 69 °C.
As to `CC(=N)Nc1cccc(C(C)O)c1` (stereo not given), the melting point was in the range of 132 to 135 °C.
The molecule `CCCc1c(C(=O)OCC)nc2ccccc2c1OCc1ccccc1` registered a melting point of 127 to 129 °C.
For `CSC1=NC2=NC3=C(CN(Cc4ccccc4)CC3=O)CN2N1`, the melting point lay within 245 to 247 °C.
For the molecule `O=CC1(c2ccc(Br)cc2)CC=CO1` (stereo not given), the melting point turned out to be 154 °C.
Under `CC(Oc1ccc2oc3cc(Cl)ccc3c2c1)C(N)=O` (stereo not given) stands 185 to 187 °C.
In the case of `CON=CC(C)(C#N)NC(=O)C(Oc1ccc2ncc(Br)cc2c1)SC` (stereo not given), the melting point fell in the range of 138 to 145 °C.
Under `Cn1cc(C2c3ccc(Cl)cc3C=Cc3sc(OCCn4ccnc4)nc32)c(=S)[nH]c1=O` (stereo not given) stands 190 to 193 °C; under `Cn1c(=O)c(-c2ccc(Cl)cc2Cl)cc2c3cc(-c4nc(CC(=O)O)cs4)ccc3n(C)c21`, 234 to 239 °C.
Turning to `COc1cc(CCCC2OC(=O)NC2=O)ccc1OCc1nc(-c2ccccc2)no1` (stereo not given), the melting point was 110 to 111 °C.
With `CCCN(CCCC12CC3CC(CC(C3)C1)C2)C(=O)NCc1ccncc1`, the melting point was in the range of 96 to 98 °C.
Consider `CC(=O)NC(=O)N1CC1C#N` (stereo not given), for which the melting point was 139 to 142 °C.
As for `CCOc1ccc(S(=O)(=O)NCc2ccccn2)cc1-c1nc2cccnc2c(=O)[nH]1`, the melting point is 230 to 231 °C.
Molecule `O=C(NCCN1CCCCC1n1c(=O)[nH]c2ccccc21)c1cccc(F)c1` (stereo not given) came in with a melting point of 226 °C.
`CCOC(=O)CCc1cc2cc(O)ccc2s1` returned a melting point of 111 to 113 °C.
`C1CN(c2nc(NC3CC3)nc(C3CC3)n2)CCS1` returned a melting point of 133 to 134 °C.
In the case of `O=C(Nc1csc(-c2cccnc2)n1)c1nnn[nH]1` it was 263 to 265 °C; in that of `CC(=O)Nc1cn2cc(Sc3ccccc3)ccc2n1`, 257 to 259 °C.
`C[Si](C)(C)C#Cc1c(C(F)(F)F)nn(-c2c(Cl)cc(C(F)(F)F)cc2Cl)c1N` gave a melting point of 120 to 123 °C.
`CCCCc1nccn1-c1nc(Cl)nc2nc[nH]c12` gave a melting point of 247 to 248 °C.
In the case of `O=C(OCCCCc1ccc2[nH]c(=O)oc2c1)C(F)(F)F` it was 100 to 103 °C; in that of `O=C(Nc1ccc(OC(F)(F)F)c(Br)c1)C(F)(F)F`, 64 to 66 °C.
As for `O=[N+]([O-])c1ccc(S(=O)(=O)Nc2ccc(F)cc2)c([N+](=O)[O-])c1`, the melting point was in the range of 127 to 128 °C.
`COC(=O)CC[C@@H](Cc1cn(Cc2ccccc2)c2ccccc12)NC(=O)CCCCCCc1ccccc1` returned a melting point of 107 to 109 °C.
`Clc1cc2nnnn2c2cnccc12`: the melting point is 176 to 177 °C.
The molecule `Clc1ccc2nc(-c3cccs3)c(-c3ccncc3)n2n1` returned a melting point of 208 to 210 °C.
Under `CCCNc1nc2ccccn2c(=O)c1-c1ccc(NC2CCN(C(=O)OC(C)(C)C)C2)cc1` (stereo not given) stands 187 to 190 °C; under `CCOC(=O)c1ccc(C(=O)Nc2ccc3c(c2)C(C)(C)CC(=O)N3C)cc1`, 197 to 199 °C.
Turning to `CCOC(=O)c1oc(-c2ccccc2)cc(=O)c1Cl`, the melting point turned out to be 121 °C.
Take `Cc1ccc(N(c2ccc(C)cc2)c2c(C)cc(-c3cc(C)c(N(c4ccc(C)cc4)c4ccc5ccc6cccc7ccc4c5c67)c(C)c3)cc2C)cc1`: the melting point lay in the range of 198 to 199 °C.
In the case of `N#CC1Cc2cc3cc[nH]c3cc21` (stereo not given) it was 126 to 128 °C.
`Cc1ccc2c(c1C)N(c1ncnc3cnccc13)CC2` registered a melting point of 248 °C.
Molecule `NC(=O)CC(=O)NCCS` registered a melting point of 100 °C.
Take `COCOc1cccc(Cn2nc(C(=O)OC)c3c2-c2ccc(OCc4cncnc4)cc2CC3)c1`: the melting point lay in the range of 178 to 180 °C.
For `ON=C(c1ccc(F)cc1)c1ccc(O)c(Cl)c1Cl`, the melting point lay within 150 to 156 °C.
For `COc1cc(-c2cnc3[nH]c(=O)n(CC4CCCCC4)c3n2)ccn1`, the melting point is 295 to 297 °C.
As for `C[C@@H]1OC(=O)[C@H]2[C@H]3O[C@H]([C@H]4CCCC[C@H]43)[C@@H]21`, the melting point fell in the range of 148 to 149 °C.
`CNC(=O)CCC(=O)c1ccc(OCC(O)CNC(C)C)cc1` (stereo not given) showed a melting point of 175 to 178 °C.
`Cc1nnnn1-c1ccc(/C(=C\C2CCCC2)C(=O)O)cc1F` had a melting point of 182 to 185 °C.
In the case of `O=C(On1nnc2ccccc21)c1ccc2c(c1)OC(c1ccccc1)(c1ccccc1)O2` it was 158 to 160 °C; in that of `Cc1cc(-c2cc(C(F)F)n3ncc(C(=O)Nc4nc(C)c(S(N)(=O)=O)s4)c3n2)ccc1C(F)(F)F`, 307 °C; in that of `Cc1cc(-n2cc(C#N)nc2C)cc2ccc(=O)[nH]c12`, > 350 °C.
In the case of `COc1ccc2cccc3c2c1CCC3CNC(=O)C1CC1` (stereo not given) it was 119 °C; in that of `Nc1ccc(-c2ccc3nnn(Cc4ccc5ncccc5c4)c3n2)cn1`, 194 to 197 °C.
